Measured values: patent US7423157B2, “Substituted benzimidazoles and their use for inducing apoptosis” (Basilea Pharmaceutica AG, priority 2004, dated 2008)

How the values were obtained:
Jurkat [1] = assay: Hoechst 33342 nuclear staining, Jurkat; format: cell-based, human; details: 48 h
Experimental: (§1) This assay is performed in 96 well tissue culture plates. Appropriate number of cells (adherent cells: 3-5*10^3, suspension cells: 8-10*10^3) are being seeded out in 80 μl complete medium. Adherent cells are incubated for 24 h for proper spreading out before addition of test compounds while suspension cells are immediately treated with test compounds after seeding out. The test compounds are added in 20 μl complete medium containing max 5% DMSO. The final compound concentrations in the assays are 10 μM, 3 μM, 1 μM and 0.3 μM, respectively. […] The assay plates are then further incubated for 30 minutes and subsequently analyzed with a standard inverted fluorescence microscope.
(§2) The readout allows the determination of the fraction of apoptotic nuclei as well as other morphological criteria specific for apoptosis as a function of the treatment. The following scores are used: 0 relating to no activity, 1 relating to weak activity comprising less than 50% of the cells and score 2 relating to strong activity comprising more than 50% of the cells.

Jily = assay: Hoechst 33342 nuclear staining, Jily; format: cell-based; details: 48 h
Experimental: as §1, §2

PBLs = assay: Hoechst 33342 nuclear staining, PBLs; format: cell-based; set-up: key: 0 = no activity, 1 = weak (<50% of cells), 2 = strong (>50% of cells); details: 48 h
Experimental: as §1, §2

HeLa [2] = assay: Hoechst 33342 nuclear staining, HeLa; format: cell-based, human; details: 48 h
Experimental: as §1, §2

H460 = assay: Hoechst 33342 nuclear staining, H460; format: cell-based, human; details: H460, 48 h
Experimental: as §1, §2

MRC5 = assay: Hoechst 33342 nuclear staining, MRC5; format: cell-based; set-up: key: 0 = no activity, 1 = weak (<50% of cells), 2 = strong (>50% of cells); details: MRC5, 48 h
Experimental: as §1, §2

Jurkat [3] = assay: MTS proliferation assay, Jurkat; format: cell-based, human; details: 72 h incubation
Experimental: (§3) The assay is performed in 96 well tissue culture plates. The cells (range: 1.5*10^3-10^4) are seeded out in 80 μl complete medium 24 h prior to compound treatment. The test compounds are added in 20 μl complete medium containing max 5% DMSO. The final compound concentrations in the assays are 10 μM, 3 μM, 1 μM and 0.3 μM, respectively. The assay plates are incubated for 72 h at culture conditions. The MTS reagent is prepared according to the manufacturer's protocol (Promega G1111). 20 μl MTS reagent are added to each well, the assay plates are quickly spun and incubated for another 3 h at culture conditions. Subsequently, the plates are shortly shaked and absorption measured with a microplate-reader at 492 nm.

HeLa [4] = assay: MTS proliferation assay, HeLa; format: cell-based, human; details: 72 h incubation
Experimental: as §3

SMILES	Hoechst 33342 nuclear staining score (Jurkat [1]; conc. 0.3 (μM))	Hoechst 33342 nuclear staining score (Jurkat [1]; conc. 1 (μM))	Hoechst 33342 nuclear staining score (Jurkat [1]; conc. 3 (μM))	Hoechst 33342 nuclear staining score (Jurkat [1]; conc. 10 (μM))	Hoechst 33342 nuclear staining score (Jily; conc. 0.3 (μM))	Hoechst 33342 nuclear staining score (Jily; conc. 1 (μM))	Hoechst 33342 nuclear staining score (Jily; conc. 3 (μM))	Hoechst 33342 nuclear staining score (Jily; conc. 10 (μM))	Hoechst 33342 nuclear staining score (PBLs; conc. 0.3 (μM))	Hoechst 33342 nuclear staining score (PBLs; conc. 1 (μM))	Hoechst 33342 nuclear staining score (PBLs; conc. 3 (μM))	Hoechst 33342 nuclear staining score (PBLs; conc. 10 (μM))	Hoechst 33342 nuclear staining score (HeLa [2]; conc. 0.3 (μM))	Hoechst 33342 nuclear staining score (HeLa [2]; conc. 1 (μM))	Hoechst 33342 nuclear staining score (HeLa [2]; conc. 3 (μM))	Hoechst 33342 nuclear staining score (HeLa [2]; conc. 10 (μM))	Hoechst 33342 nuclear staining score (H460; conc. 0.3 (μM))	Hoechst 33342 nuclear staining score (H460; conc. 1 (μM))	Hoechst 33342 nuclear staining score (H460; conc. 3 (μM))	Hoechst 33342 nuclear staining score (H460; conc. 10 (μM))	also measured
Nc1ccc(C(=O)Cn2c(-n3ncnc3N)nc3ccccc32)cn1 [Example 14]	2 (score 2 relating to strong activity comprising more than 50% of the cells)	2 (score 2 relating to strong activity comprising more than 50% of the cells)	2 (score 2 relating to strong activity comprising more than 50% of the cells)	2 (score 2 relating to strong activity comprising more than 50% of the cells)	2 (score 2 relating to strong activity comprising more than 50% of the cells)	2 (score 2 relating to strong activity comprising more than 50% of the cells)	2 (score 2 relating to strong activity comprising more than 50% of the cells)	2 (score 2 relating to strong activity comprising more than 50% of the cells)	0	0	0	0	2 (score 2 relating to strong activity comprising more than 50% of the cells)	2 (score 2 relating to strong activity comprising more than 50% of the cells)	2 (score 2 relating to strong activity comprising more than 50% of the cells)	2 (score 2 relating to strong activity comprising more than 50% of the cells)	2 (score 2 relating to strong activity comprising more than 50% of the cells)	2 (score 2 relating to strong activity comprising more than 50% of the cells)	2 (score 2 relating to strong activity comprising more than 50% of the cells)	2 (score 2 relating to strong activity comprising more than 50% of the cells)	Hoechst 33342 nuclear staining score (MRC5; conc. 0.3 (μM)): 1 (1 relating to weak activity comprising less than 50% of the cells); Hoechst 33342 nuclear staining score (MRC5; conc. 1 (μM)): 1 (1 relating to weak activity comprising less than 50% of the cells); Hoechst 33342 nuclear staining score (MRC5; conc. 3 (μM)): 1 (1 relating to weak activity comprising less than 50% of the cells); Hoechst 33342 nuclear staining score (MRC5; conc. 10 (μM)): 1 (1 relating to weak activity comprising less than 50% of the cells); IC50 (Jurkat [3]): < 100 nM; IC50 (HeLa [4]): 100 to 1000 nM
CS(=O)(=O)O.Nc1ccc(C(=O)Cn2c(-n3ncnc3N)nc3ccccc32)cn1 [Example 15]	2 (score 2 relating to strong activity comprising more than 50% of the cells)	2 (score 2 relating to strong activity comprising more than 50% of the cells)	2 (score 2 relating to strong activity comprising more than 50% of the cells)	2 (score 2 relating to strong activity comprising more than 50% of the cells)	2 (score 2 relating to strong activity comprising more than 50% of the cells)	2 (score 2 relating to strong activity comprising more than 50% of the cells)	2 (score 2 relating to strong activity comprising more than 50% of the cells)	2 (score 2 relating to strong activity comprising more than 50% of the cells)	0	0	0	0	2 (score 2 relating to strong activity comprising more than 50% of the cells)	2 (score 2 relating to strong activity comprising more than 50% of the cells)	2 (score 2 relating to strong activity comprising more than 50% of the cells)	2 (score 2 relating to strong activity comprising more than 50% of the cells)	2 (score 2 relating to strong activity comprising more than 50% of the cells)	2 (score 2 relating to strong activity comprising more than 50% of the cells)	2 (score 2 relating to strong activity comprising more than 50% of the cells)	2 (score 2 relating to strong activity comprising more than 50% of the cells)	Hoechst 33342 nuclear staining score (MRC5; conc. 0.3 (μM)): 1 (1 relating to weak activity comprising less than 50% of the cells); Hoechst 33342 nuclear staining score (MRC5; conc. 1 (μM)): 1 (1 relating to weak activity comprising less than 50% of the cells); Hoechst 33342 nuclear staining score (MRC5; conc. 3 (μM)): 1 (1 relating to weak activity comprising less than 50% of the cells); Hoechst 33342 nuclear staining score (MRC5; conc. 10 (μM)): 1 (1 relating to weak activity comprising less than 50% of the cells)
COc1ccc(C(=O)Cn2c(-n3ccc(N)n3)nc3ccccc32)cc1 [Example 2, 5-Amino-2-(1-[4-methoxyphenylcarbonylmethyl]benzimidazol-2-yl)-pyrazole]	0	0	2 (score 2 relating to strong activity comprising more than 50% of the cells)	2 (score 2 relating to strong activity comprising more than 50% of the cells)	0	2 (score 2 relating to strong activity comprising more than 50% of the cells)	2 (score 2 relating to strong activity comprising more than 50% of the cells)	2 (score 2 relating to strong activity comprising more than 50% of the cells)	0	0	0	2 (score 2 relating to strong activity comprising more than 50% of the cells)	0	0	2 (score 2 relating to strong activity comprising more than 50% of the cells)	2 (score 2 relating to strong activity comprising more than 50% of the cells)	0	0	2 (score 2 relating to strong activity comprising more than 50% of the cells)	2 (score 2 relating to strong activity comprising more than 50% of the cells)	Hoechst 33342 nuclear staining score (MRC5; conc. 0.3 (μM)): 0; Hoechst 33342 nuclear staining score (MRC5; conc. 1 (μM)): 0; Hoechst 33342 nuclear staining score (MRC5; conc. 3 (μM)): 0; Hoechst 33342 nuclear staining score (MRC5; conc. 10 (μM)): 0
